In brackets after ≈: the same amount, converted by molar mass. Where two headings read alike, the source gives them in different places. No end group written: not given here.

In data set [1] the target is T1, Mucor miehei lipase (Mucor miehei, UniProt P19515 95-363).
T1 sequence (looked up): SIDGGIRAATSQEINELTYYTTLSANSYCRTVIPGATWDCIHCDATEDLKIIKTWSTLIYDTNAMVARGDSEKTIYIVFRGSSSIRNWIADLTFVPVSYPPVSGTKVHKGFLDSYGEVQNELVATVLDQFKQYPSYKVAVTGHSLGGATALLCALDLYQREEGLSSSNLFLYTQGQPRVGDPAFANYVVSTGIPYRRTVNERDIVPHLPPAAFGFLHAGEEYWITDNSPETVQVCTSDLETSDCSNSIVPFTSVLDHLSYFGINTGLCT

Data set [2] concerns the target T1, Mucor miehei lipase. Description: other fluorescence titration; quenching of the intrinsic fluorescence of lipase (emission peak 338 nm) by crude lipopeptide at 0-0.457 mg/mL; Stern-Volmer and double-logarithmic plots.
The next data set concerns lipase. To be noted: cited from earlier work; for IC50 on lipase: previously reported. From the text: The inhibition mechanisms of crude lipopeptide, fengycin, and surfactin on lipase catalysis were studied.
For data set [3], the target named is T2, Mucor miehei lipase (Rhizomucor miehei, UniProt P19515).
T2 sequence (P19515 95-363): T1 sequence (looked up)
Description: Lipase inhibition (4-NPP hydrolysis, 405 nm). The note with it: relative to iturin.
Description: Lyophilised powder of Mucor miehei lipase (EC3.1.1.3), 4-Nitrophenyl palmitate (4-NPP), iturin, and surfactin were purchased from Sigma-Aldrich (St. Louis, MO). Acetonitrile, hydrochloric acid (HCl) and Tris were purchased from Sinopharm (Shanghai, China).
The lipase inhibition was determined according to the method described by Liu et al.[21] 10 µg/mL lipase in water and 7.5 mmol/L 4-NPP in acetonitrile solutions were prepared. […] The 1 mL reaction mixture contained 0.75 mM 4-NPP, 0.4 µg/mL lipase, and different concentrations of inhibitor in Tris-HCl buffer (pH 7.8). The reaction was carried out at 37 °C and the detection wavelength was set at 405 nm.

Data set [4] concerns the target T2, Mucor miehei lipase. Description: Inhibition mechanism and type of lipopeptides on lipase (activity vs enzyme concentration; Lineweaver-Burk). The class given is biochemical. Further details: purchased Sigma-Aldrich (St. Louis, MO). To be noted: for Inhibition effect: Type: Lineweaver-Burk plot, Tris-HCl buffer, 100 µL lipase; for IC50, Calculated: calculated value of Table 2; for Inhibition effect: Mechanisms: remaining enzyme activity vs enzyme concentration, lines intersecting at the origin, fixed substrate; for Inhibition constant KI: secondary plot of 1/Vm versus inhibitor concentration. As to the method:
The inhibition mechanisms were studied by fixing the concentration of substrate and changing the lipopeptides and enzymes to monitor enzymatic reaction. The inhibition types were determined based on the Lineweaver-Burk plot[22]; this reaction system contained different concentrations of substrate and lipopeptide and 100 µL of lipase in Tris-HCl buffer. Then, the inhibition constant was calculated from a secondary plot of 1/Vm versus the inhibitor concentration.

For data set [5] the following is noted: reported to cause certain side effects; cited from earlier work. From the text: Dietary and lifestyle modifications such as calorie restriction and physical exercises are the common strategies adopted to control body weight; further, these methods have limited anti-obesity effects. It has previously been reported that lipase inhibition is a potential strategy for counteracting obesity. Digestive lipase hydrolyses non-absorbable dietary triglycerides to smaller absorbable molecules of monoglycerides and free fatty acids, which are absorbed by the intestine. Inhibiting digestive lipase can reduce intestinal fat absorption. Human pancreatic lipase is the main enzyme ...

The conditions of data set [6]: from 72 mN/m; cited from earlier work. From the text: In fact, it has been reported that bacterial cyclic lipopeptides are the most popular amphiphilic molecules that are excellent surface active compounds[12]. The genus Bacillus is described as an efficient source of lipopeptide biosurfactants. The Bacillus lipopeptides are divided into three different families, including iturins, surfactins, and fengycins, ...

For data set [7], the target named is T1, Mucor miehei lipase. This is another data set of the same source.
Data set [8] addresses T1, Mucor miehei lipase. Put plainly: cell-based or functional assay.

For the molecule “crude lipopeptide from Bacillus velezensis FJAT-52631”, in the data set with Mucor miehei lipase [1], the IC50 (calculated) of inhibition of lipase activity was 8 µg/mL and the IC50 (measured) of inhibition of lipase activity (4-NPP hydrolysis) was determined as 11 µg/mL. For the same molecule, in the data set with Mucor miehei lipase [2], the Ksv (Stern-Volmer quenching constant) stood at 0.525 L/g and the stoichiometry N is 0.78.
As to `O=C(O)C(=O)O` [oxalic acid], in the data set on lipase, the “inhibition mechanism on lipase” value was “reversible” and the IC50 on lipase was 1425 µg/mL (≈ 15.8 mM).
For the molecule `O=C(O)c1ccco1` [furoic acid], in the data set on lipase, the “inhibition mechanism on lipase” value is “reversible” and the IC50 on lipase is 242 µg/mL (≈ 2.16 mM).
For the molecule “purified fengycin from Bacillus velezensis FJAT-52631 (peptide)”, in the data set with Mucor miehei lipase [1], the IC50 (calculated) of inhibition of lipase activity is 2 µg/mL and the IC50 (measured) of inhibition of lipase activity (4-NPP hydrolysis) amounted to 5 µg/mL.
Regarding fengycin, the “stronger lipase inhibition activity than iturin” value at Mucor miehei lipase [3] is listed as “about 10 -fold”. Also, at Mucor miehei lipase [4], the “Inhibition effect: Type” value is on record as “Competitive inhibition”; the “IC50, Calculated” value is 2 µg/mL; the “Inhibition effect: Mechanisms” value is “Reversible”; the “Inhibition constant KI” value came to 1 µg/mL. Moreover, on Mucor miehei lipase [4] (listed as fengycin), the “Inhibition effect: Type” value is “competitive”.
On to `CCCCCCCCCCC[C@@H](C[C@@H]1OC(=O)[C@H]1CCCCCC)OC(=O)[C@H](CC(C)C)NC=O` [orlistat], for which the side effects entry in data set [5] is “oily stools, oily spotting, and flatulence”. Besides, the “inhibition mechanism on lipase” value in the data set with lipase was “irreversible”.
Regarding surfactin, the “stronger lipase inhibition activity than iturin” value at Mucor miehei lipase [3] is listed as “about 10 -fold”. At Mucor miehei lipase [4], the “Inhibition effect: Type” value is recorded as “Competitive inhibition”; the “IC50, Calculated” value was 1 µg/mL; the “Inhibition effect: Mechanisms” value is on record as “Reversible”; the “Inhibition constant KI” value came to 1 µg/mL. For the same molecule, the “Inhibition effect: Type” value at Mucor miehei lipase [4] (listed as surfactin) was “competitive”. In addition, the “surface tension of water lowered to” value in data set [6] is reported as 27 mN/m.
With iturin standard (peptide), the IC50 of inhibition of lipase activity (4-NPP hydrolysis) with Mucor miehei lipase [7] worked out at 56 µg/mL.

B1: surfactin standard (peptide)
chain: ELLVDLL
modifications: not fully specified (residues 3, 6, N-terminus, bridges); also: cyclic peptide ring with beta-hydroxy fatty acid chain, attachment not given here
In the case of B1, in the data set with Mucor miehei lipase [8], the “IC50 (calculated) of inhibition of lipase activity” value is 1 µg/mL and the “IC50 (measured) of inhibition of lipase activity (4-NPP hydrolysis)” value worked out at 5 µg/mL.

For orientation: stoichiometry N means a count of units in the complex or per binding partner.
